Measured values taken from US10294248B2, “Beta-lactamase inhibitors” (VenatoRx Pharmaceuticals, Inc., priority 2013, dated 2019).

What was measured:
[1] = molecular target: T1, SHV-5 β-lactamase (Class A ESBL) (Klebsiella pneumoniae, UniProt P0A3M1); assay: β-Lactamase inhibition, SHV-5; format: biochemical
T1 construct: made in house; host or cells: E. coli BL21(DE3)
How it was run: (§1)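 IC50 is the inhibitor level cutting initial substrate hydrolysis rate by 50% relative to no-inhibitor controls, after 15 min enzyme–inhibitor preincubation at 37 °C. KPC-2 read with imipenem at 300 nm, SHV-5 with cefotaxime at 260 nm; enzymes were untagged, E. coli-expressed, chromatographically purified.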

[2] = molecular target: T2, KPC-2 β-lactamase (Class A carbapenemase) (Klebsiella pneumoniae, UniProt Q9F663); assay: β-Lactamase inhibition, KPC-2; format: biochemical; conditions: imipenem substrate, 300 nm; 15 min preincubation at 37° C., PBS pH 7.4
T2 construct: made in house; host or cells: E. coli BL21(DE3)
How it was run: as §1

[3] = molecular target: T3, VIM-2 metallo-β-lactamase (Class B) (Pseudomonas aeruginosa, UniProt Q9K2N0); assay: β-Lactamase inhibition, VIM-2; format: biochemical; conditions: nitrocefin 100 μM, 486 nm; 15 min preincubation at 37° C., PBS pH 7.4
T3 construct: made in house; host or cells: E. coli BL21(DE3)
How it was run: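 First, VIM-2 purified by repeated anion exchange at pH 7.5 is mixed with inhibitor and held 15 min at 37 °C. Next, nitrocefin (final 100 μM) is dispensed and absorbance at 486 nm monitored immediately for 10 min. Rates versus uninhibited controls give IC50.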

[4] = molecular target: T4, p99 AmpC β-lactamase (Class C) (Enterobacter cloacae, UniProt P05364); assay: β-Lactamase inhibition, p99 AmpC; format: biochemical
T4 construct: made in house; host or cells: E. coli BL21(DE3)

[5] = molecular target: T5, OXA-1 β-lactamase (Class D oxacillinase) (Escherichia coli, UniProt P13661); assay: β-Lactamase inhibition, OXA-1; format: biochemical; conditions: nitrocefin 100 μM, 486 nm; 15 min preincubation at 37° C., PBS pH 7.4
T5 construct: made in house; host or cells: E. coli BL21(DE3)
How it was run: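 Compounds are mixed with purified, untagged recombinant β-lactamase and held 15 min at 37 °C. Substrate is then added: nitrocefin (100 μM final) for OXA-1, imipenem for KPC-2, cefotaxime for SHV-5. Absorbance is followed immediately, and percent inhibition per concentration gives the IC50.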

[6] = system: E. coli ESBL4 expressing CTX-M-15; assay: Broth microdilution MIC, E. coli ESBL4 CTX-M-15; format: cell-based; conditions: fixed 4 μg/mL ceftazidime; CAMHB, 16-20 hours at 37° C.
How it was run: (§2)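 Strains were grown 3-5 h in cation-adjusted Mueller Hinton broth, then inoculated per CLSI into plates holding compound dilutions (32 to 0.25 μg/ml, 2-fold) plus a β-lactam fixed at 4 μg/ml. Plates were incubated 16-20 h at 37° C before visual MIC reading.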

[7] = system: E. cloacae 144200 expressing Class C P99 AmpC; assay: Broth microdilution MIC, E. cloacae 144200 p99 AmpC; format: cell-based; conditions: fixed 4 μg/mL ceftazidime; CAMHB, 16-20 hours at 37° C.
How it was run: as §2

[8] = system: K. pneumoniae 156319 expressing KPC-3; assay: Broth microdilution MIC, K. pneumoniae 156319 KPC-3; format: cell-based; conditions: fixed 4 μg/mL meropenem; CAMHB, 16-20 hours at 37° C.
How it was run: as §2

[9] = system: P. aeruginosa Ps296 expressing VIM-2; assay: Broth microdilution MIC, P. aeruginosa Ps296 VIM-2; format: cell-based; conditions: fixed 4 μg/mL meropenem; CAMHB, 16-20 hours at 37° C.
How it was run: as §2

[10] = system: K. pneumoniae A-1797 expressing KPC-2 and VIM-4; assay: Broth microdilution MIC, K. pneumoniae A-1797 KPC-2/VIM-4; format: cell-based; conditions: fixed 4 μg/mL meropenem; CAMHB, 16-20 hours at 37° C.
How it was run: as §2

[11] = system: S. aureus MSSA-7 producing penicillinase PC-1; assay: Broth microdilution MIC, S. aureus MSSA-7 PC-1; format: cell-based; conditions: fixed 4 μg/mL piperacillin; CAMHB, 16-20 hours at 37° C.
How it was run: as §2

T5 sequence (P13661 26-276): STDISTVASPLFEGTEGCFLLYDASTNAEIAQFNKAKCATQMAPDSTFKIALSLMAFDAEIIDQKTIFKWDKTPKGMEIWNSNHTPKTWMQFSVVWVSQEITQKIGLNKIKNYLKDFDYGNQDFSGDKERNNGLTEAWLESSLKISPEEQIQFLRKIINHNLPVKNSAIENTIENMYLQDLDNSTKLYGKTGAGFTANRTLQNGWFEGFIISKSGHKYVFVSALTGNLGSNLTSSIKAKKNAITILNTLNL
T2 sequence (Q9F663 25-293, looked up): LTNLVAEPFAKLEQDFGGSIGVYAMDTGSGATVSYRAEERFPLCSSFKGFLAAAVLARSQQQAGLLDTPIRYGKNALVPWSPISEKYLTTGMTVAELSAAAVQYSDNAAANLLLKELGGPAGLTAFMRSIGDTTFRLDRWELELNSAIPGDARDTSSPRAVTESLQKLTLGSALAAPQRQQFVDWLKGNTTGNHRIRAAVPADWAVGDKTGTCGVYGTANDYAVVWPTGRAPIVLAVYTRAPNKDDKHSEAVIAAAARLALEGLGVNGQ
T4 sequence (P05364 21-381): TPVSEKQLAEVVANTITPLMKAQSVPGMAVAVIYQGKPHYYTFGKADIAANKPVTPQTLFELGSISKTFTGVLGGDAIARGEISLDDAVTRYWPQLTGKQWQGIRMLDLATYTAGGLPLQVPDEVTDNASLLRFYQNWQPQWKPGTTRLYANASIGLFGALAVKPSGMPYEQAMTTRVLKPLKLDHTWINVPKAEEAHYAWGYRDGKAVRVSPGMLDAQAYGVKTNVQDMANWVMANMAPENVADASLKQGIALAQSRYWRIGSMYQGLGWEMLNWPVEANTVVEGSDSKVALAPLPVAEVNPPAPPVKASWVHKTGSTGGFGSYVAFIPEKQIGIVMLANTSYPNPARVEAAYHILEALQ
T1 sequence (P0A3M1 22-286): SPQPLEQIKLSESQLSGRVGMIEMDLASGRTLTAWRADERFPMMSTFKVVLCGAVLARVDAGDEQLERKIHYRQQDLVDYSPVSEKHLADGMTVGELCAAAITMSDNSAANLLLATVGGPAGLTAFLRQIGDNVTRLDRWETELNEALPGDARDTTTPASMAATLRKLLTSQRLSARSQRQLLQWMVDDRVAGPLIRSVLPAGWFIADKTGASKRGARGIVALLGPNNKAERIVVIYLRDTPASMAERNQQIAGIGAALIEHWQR

Work on O=C(O)c1cccc2c1OB(O)[C@@H](NC(=O)C1CNC1)C2 [Example 46, (R)-3-(azetidine-3-carboxamido)-2-hydroxy-3,4-dihydro-2H-benzo[e][1,2]oxaborinine-8-carboxylic acid] yielded an IC50 [1] of under 0.1 µM, an IC50 [2] of 0.1 to 1 µM and an IC50 [3] of 1 to 10 µM. The IC50 [4] was under 0.1 µM, the IC50 [5] was 0.1 to 1 µM and the “MIC of example compound in presence of fixed β-lactam: Fixed CAZ, E. coli ESBL4 CTX-M-15” value (shortened to “MIC of example compound … E. coli ESBL4 CTX-M-15”) [6] was “C (the MIC in the presence of <4 μg/mL of a β-lactamase inhibitor)”. For the same compound, the “MIC of example compound in presence of fixed β-lactam: Fixed CAZ, E. cl. 144200 p99 AmpC” value (shortened to “MIC of example compound … E. cl. 144200 p99 AmpC”) [7] was “C (the MIC in the presence of <4 μg/mL of a β-lactamase inhibitor)”, the “MIC of example compound in presence of fixed β-lactam: Fixed Mero, K. P. 156319 KPC-3” value (shortened to “MIC of example compound … K. P. 156319 KPC-3”) [8] was “B (the MIC in the presence of between 8 and 32 μg/mL of a β-lactamase inhibitor)” and the “MIC of example compound in presence of fixed β-lactam: Fixed Mero, P. aerug. Ps296 VIM-2” value (from here on “MIC of example compound … P. aerug. Ps296 VIM-2”) [9] was “A (an MIC of the fixed β-lactam antibiotic in the presence of >32 μg/mL of a β-lactamase inhibitor)”. For the same compound, the “MIC of example compound in presence of fixed β-lactam: Fixed Mero, K. P. A-1797 KPC-2 VIM-4” value (“MIC … K. P. A-1797 KPC-2 VIM-4” below) [10] was “A (an MIC of the fixed β-lactam antibiotic in the presence of >32 μg/mL of a β-lactamase inhibitor)” and the “MIC of example compound in presence of fixed β-lactam: Fixed Pip, S. aureus MSSA-7 PC-1” value (from here on “MIC of example compound … S. aureus MSSA-7 PC-1”) [11] was “C (the MIC in the presence of <4 μg/mL of a β-lactamase inhibitor)”.

CN(C)c1ccc(NC(=O)N2CC(C(=O)N[C@H]3Cc4cccc(C(=O)O)c4OB3O)C2)cc1 [Example 47, (R)-3-(1-(4-(dimethylamino)phenylcarbamoyl)azetidine-3-carboxamido)-2-hydroxy-3,4-dihydro-2H-benzo[e][1,2]oxaborinine-8-carboxylic acid] showed an IC50 [1] of under 0.1 µM, an IC50 [2] of under 0.1 µM and an IC50 [3] of 0.1 to 1 µM. The IC50 [4] was under 0.1 µM, the IC50 [5] was 0.1 to 1 µM and the “MIC of example compound … E. coli ESBL4 CTX-M-15” value [6] was “C (the MIC in the presence of <4 μg/mL of a β-lactamase inhibitor)”. For the same compound, the “MIC of example compound … E. cl. 144200 p99 AmpC” value [7] was “C (the MIC in the presence of <4 μg/mL of a β-lactamase inhibitor)”, the “MIC of example compound … K. P. 156319 KPC-3” value [8] was “C (the MIC in the presence of <4 μg/mL of a β-lactamase inhibitor)” and the “MIC of example compound … P. aerug. Ps296 VIM-2” value [9] was “C (the MIC in the presence of <4 μg/mL of a β-lactamase inhibitor)”. The “MIC … K. P. A-1797 KPC-2 VIM-4” value [10] was “B (the MIC in the presence of between 8 and 32 μg/mL of a β-lactamase inhibitor)” and the “MIC of example compound … S. aureus MSSA-7 PC-1” value [11] was “B (the MIC in the presence of between 8 and 32 μg/mL of a β-lactamase inhibitor)”.

O=C(O)c1cccc2c1OB(O)[C@@H](NC(=O)C1CN(c3ncccn3)C1)C2 [Example 48, (R)-2-hydroxy-3-(1-(pyrimidin-2-yl)azetidine-3-carboxamido)-3,4-dihydro-2H-benzo[e][1,2]oxaborinine-8-carboxylic acid] gave an IC50 [1] of under 0.1 µM, an IC50 [2] of under 0.1 µM and an IC50 [3] of 1 to 10 µM. For the same compound, the IC50 [4] was under 0.1 µM, the IC50 [5] was under 0.1 µM and the “MIC of example compound … E. coli ESBL4 CTX-M-15” value [6] was “C (the MIC in the presence of <4 μg/mL of a β-lactamase inhibitor)”. The “MIC of example compound … E. cl. 144200 p99 AmpC” value [7] was “C (the MIC in the presence of <4 μg/mL of a β-lactamase inhibitor)”, the “MIC of example compound … K. P. 156319 KPC-3” value [8] was “C (the MIC in the presence of <4 μg/mL of a β-lactamase inhibitor)” and the “MIC of example compound … P. aerug. Ps296 VIM-2” value [9] was “C (the MIC in the presence of <4 μg/mL of a β-lactamase inhibitor)”. The “MIC … K. P. A-1797 KPC-2 VIM-4” value [10] was “B (the MIC in the presence of between 8 and 32 μg/mL of a β-lactamase inhibitor)” and the “MIC of example compound … S. aureus MSSA-7 PC-1” value [11] was “C (the MIC in the presence of <4 μg/mL of a β-lactamase inhibitor)”.

NC1(C(=O)N[C@H]2Cc3cccc(C(=O)O)c3OB2O)CCNCC1 [Example 49, 3-[(4-Amino-piperidine-4-carbonyl)-amino]-2-hydroxy-3,4-dihydro-2H-benzo[e][1,2]oxaborinine-8-carboxylic acid] showed an IC50 [1] of under 0.1 µM, an IC50 [2] of under 0.1 µM and an IC50 [3] of 1 to 10 µM. The IC50 [4] was under 0.1 µM, the IC50 [5] was under 0.1 µM and the “MIC of example compound … E. coli ESBL4 CTX-M-15” value [6] was “C (the MIC in the presence of <4 μg/mL of a β-lactamase inhibitor)”. The “MIC of example compound … E. cl. 144200 p99 AmpC” value [7] was “C (the MIC in the presence of <4 μg/mL of a β-lactamase inhibitor)”, the “MIC of example compound … K. P. 156319 KPC-3” value [8] was “C (the MIC in the presence of <4 μg/mL of a β-lactamase inhibitor)” and the “MIC of example compound … P. aerug. Ps296 VIM-2” value [9] was “B (the MIC in the presence of between 8 and 32 μg/mL of a β-lactamase inhibitor)”. For the same compound, the “MIC … K. P. A-1797 KPC-2 VIM-4” value [10] was “A (an MIC of the fixed β-lactam antibiotic in the presence of >32 μg/mL of a β-lactamase inhibitor)” and the “MIC of example compound … S. aureus MSSA-7 PC-1” value [11] was “C (the MIC in the presence of <4 μg/mL of a β-lactamase inhibitor)”.

O=C(O)c1cccc2c1OB(O)[C@@H](NC(=O)C1CNCCN1)C2 (stereo partly drawn) [Example 50, 2-Hydroxy-3-[(piperazine-2-carbonyl)-amino]-3,4-dihydro-2H-benzo[e][1,2]oxaborinine-8-carboxylic acid] gave an IC50 [1] of under 0.1 µM, an IC50 [2] of under 0.1 µM and an IC50 [3] of 1 to 10 µM. The IC50 [4] was under 0.1 µM, the IC50 [5] was under 0.1 µM and the “MIC of example compound … E. coli ESBL4 CTX-M-15” value [6] was “C (the MIC in the presence of <4 μg/mL of a β-lactamase inhibitor)”. The “MIC of example compound … E. cl. 144200 p99 AmpC” value [7] was “C (the MIC in the presence of <4 μg/mL of a β-lactamase inhibitor)”, the “MIC of example compound … K. P. 156319 KPC-3” value [8] was “C (the MIC in the presence of <4 μg/mL of a β-lactamase inhibitor)” and the “MIC of example compound … P. aerug. Ps296 VIM-2” value [9] was “C (the MIC in the presence of <4 μg/mL of a β-lactamase inhibitor)”. The “MIC … K. P. A-1797 KPC-2 VIM-4” value [10] was “A (an MIC of the fixed β-lactam antibiotic in the presence of >32 μg/mL of a β-lactamase inhibitor)” and the “MIC of example compound … S. aureus MSSA-7 PC-1” value [11] was “C (the MIC in the presence of <4 μg/mL of a β-lactamase inhibitor)”.

Work on CN1CCC(C(=O)N[C@H]2Cc3cccc(C(=O)O)c3OB2O)(N(C)C)CC1 [Example 51, 3-[(4-Dimethylamino-1-methyl-piperidine-4-carbonyl)-amino]-2-hydroxy-3,4-dihydro-2H-benzo[e][1,2]oxaborinine-8-carboxylic acid] yielded an IC50 [1] of 1 to 10 µM, an IC50 [2] of under 0.1 µM and an IC50 [3] of 1 to 10 µM. For the same compound, the IC50 [4] was under 0.1 µM, the IC50 [5] was 0.1 to 1 µM and the “MIC of example compound … E. coli ESBL4 CTX-M-15” value [6] was “C (the MIC in the presence of <4 μg/mL of a β-lactamase inhibitor)”. For the same compound, the “MIC of example compound … E. cl. 144200 p99 AmpC” value [7] was “C (the MIC in the presence of <4 μg/mL of a β-lactamase inhibitor)”, the “MIC of example compound … K. P. 156319 KPC-3” value [8] was “C (the MIC in the presence of <4 μg/mL of a β-lactamase inhibitor)” and the “MIC of example compound … P. aerug. Ps296 VIM-2” value [9] was “C (the MIC in the presence of <4 μg/mL of a β-lactamase inhibitor)”. For the same compound, the “MIC … K. P. A-1797 KPC-2 VIM-4” value [10] was “A (an MIC of the fixed β-lactam antibiotic in the presence of >32 μg/mL of a β-lactamase inhibitor)” and the “MIC of example compound … S. aureus MSSA-7 PC-1” value [11] was “C (the MIC in the presence of <4 μg/mL of a β-lactamase inhibitor)”.
